Experimental data published in ChEMBL document CHEMBL1154382, “Preliminary SAR analysis of novel antiproliferative N(6),5'-bis-ureidoadenosine derivatives” (2009).

Key:
Type in all cases: functional
SF-268 [1] = assay: Antiproliferative activity against human SF268 cells at 10 uM assessed as cell growth inhibition relative to control; conditions: values are per cent of control
OVCAR-5 [2] = assay: Antiproliferative activity against human OVCAR5 cells
Malme-3M = assay: Antiproliferative activity against human MALME-3M cells at 10 uM assessed as cell growth inhibition relative to control; conditions: values are per cent of control
RXF 393 [3] = assay: Antiproliferative activity against human RXF393 cells
[4] = Antiproliferative activity against human […] cells at 10 uM assessed as cell growth inhibition relative to control; conditions: values are per cent of control
NCI-H226 = assay: Antiproliferative activity against human NCI-H226 cells at 10 uM assessed as cell growth inhibition relative to control; conditions: values are per cent of control
UACC-62 = assay: Antiproliferative activity against human UACC62 cells at 10 uM assessed as cell growth inhibition relative to control; conditions: values are per cent of control
UO-31 = assay: Antiproliferative activity against human UO31 cells at 10 uM assessed as cell growth inhibition relative to control; conditions: values are per cent of control
SK-MEL-28 [5] = assay: Antiproliferative activity against human SK-MEL-28 cells at 10 uM assessed as cell growth inhibition relative to control; conditions: values are per cent of control
K562 = assay: Antiproliferative activity against human K562 cells
NCI-H522 [6] = assay: Antiproliferative activity against human NCI-H522 cells
SNB-19 [7] = assay: Antiproliferative activity against human SNB19 cells at 10 uM assessed as cell growth inhibition relative to control; conditions: values are per cent of control
BT-549 = assay: Antiproliferative activity against human BT549 cells at 10 uM assessed as cell growth inhibition relative to control; conditions: values are per cent of control
OVCAR-4 [8] = assay: Antiproliferative activity against human OVCAR4 cells at 10 uM assessed as cell growth inhibition relative to control; conditions: values are per cent of control
OVCAR-5 [9] = assay: Antiproliferative activity against human OVCAR5 cells at 10 uM assessed as cell growth inhibition relative to control; conditions: values are per cent of control
MOLT-4 = assay: Antiproliferative activity against human MOLT4 cells
SN12C [10] = assay: Antiproliferative activity against human SN12C cells at 10 uM assessed as cell growth inhibition relative to control; conditions: values are per cent of control
KM12 = assay: Antiproliferative activity against human KM12 cells at 10 uM assessed as cell growth inhibition relative to control; conditions: values are per cent of control
HL-60(TB) [11] = assay: Antiproliferative activity against human HL-60(TB) cells at 10 uM assessed as cell growth inhibition relative to control; conditions: values are per cent of control
OVCAR-8 = assay: Antiproliferative activity against human OVCAR8 cells
T47D [12] = assay: Antiproliferative activity against human T47D cells at 10 uM assessed as cell growth inhibition relative to control; conditions: values are per cent of control
SF-539 [13] = assay: Antiproliferative activity against human SF539 cells
HCC 2998 = assay: Antiproliferative activity against human HCC2998 cells
SK-MEL-5 = assay: Antiproliferative activity against human SK-MEL-5 cells
MCF7 [14] = assay: Antiproliferative activity against human MCF7 cells at 10 uM assessed as cell growth inhibition relative to control; conditions: values are per cent of control
A498 = assay: Antiproliferative activity against human A498 cells
T47D [15] = assay: Antiproliferative activity against human T47D cells
HCT-15 [16] = assay: Antiproliferative activity against human HCT15 cells
SF-268 [17] = assay: Antiproliferative activity against human SF268 cells
COLO 205 [18] = assay: Antiproliferative activity against human COLO205 cells
HT-29 = assay: Antiproliferative activity against human HT-29 cells
A549 [19] = assay: Antiproliferative activity against human A549 cells at 10 uM assessed as cell growth inhibition relative to control; conditions: values are per cent of control
SK-OV-3 = assay: Antiproliferative activity against human SKOV3 cells
RXF 393 [20] = assay: Antiproliferative activity against human RXF393 cells at 10 uM assessed as cell growth inhibition relative to control; conditions: values are per cent of control
SF-539 [21] = assay: Antiproliferative activity against human SF539 cells at 10 uM assessed as cell growth inhibition relative to control; conditions: values are per cent of control
IGROV-1 = assay: Antiproliferative activity against human IGROV1 cells at 10 uM assessed as cell growth inhibition relative to control; conditions: values are per cent of control
SK-MEL-28 [22] = assay: Antiproliferative activity against human SK-MEL-28 cells
HL-60(TB) [23] = assay: Antiproliferative activity against human HL-60(TB) cells
[24] = Antiproliferative activity against human Hs 578T cells
SNB-19 [25] = assay: Antiproliferative activity against human SNB19 cells
HCT-15 [26] = assay: Antiproliferative activity against human HCT15 cells at 10 uM assessed as cell growth inhibition relative to control; conditions: values are per cent of control
SF-295 = assay: Antiproliferative activity against human SF295 cells
LOX IMVI = assay: Antiproliferative activity against human LOXIMVI cells
M14 = assay: Antiproliferative activity against human M14 cells
MDA-MB-435 = assay: Antiproliferative activity against human MDA-MB-435 cells
A549 [27] = assay: Antiproliferative activity against human A549 cells
SN12C [28] = assay: Antiproliferative activity against human SN12C cells
MCF7 [29] = assay: Antiproliferative activity against human MCF7 cells
COLO 205 [30] = assay: Antiproliferative activity against human COLO205 cells at 10 uM assessed as cell growth inhibition relative to control; conditions: values are per cent of control
OVCAR-3 = assay: Antiproliferative activity against human OVCAR-3 cells at 10 uM assessed as cell growth inhibition relative to control; conditions: values are per cent of control
OVCAR-4 [31] = assay: Antiproliferative activity against human OVCAR4 cells
NCI-H522 [32] = assay: Antiproliferative activity against human NCI-H522 cells at 10 uM assessed as cell growth inhibition relative to control; conditions: values are per cent of control
SK-MEL-2 = assay: Antiproliferative activity against human SK-MEL-2 cells

## CCOC(=O)C[C@H]1[C@@H](O[Si](C)(C)C(C)(C)C)[C@H](n2cnc3c(NC(=O)Nc4ccccc4)ncnc32)O[C@@H]1COC(=O)NC
SF-268 [1]
  growth, % of control at 10 µM: 60%
OVCAR-5 [2]
  GI50: 12.8 µM
Malme-3M
  growth, % of control at 10 µM: 54%
RXF 393 [3]
  GI50: 2.94 µM
[4]
  growth, % of control at 10 µM: 39%
NCI-H226
  growth, % of control at 10 µM: 56%
UACC-62
  growth, % of control at 10 µM: 65%
UO-31
  growth, % of control at 10 µM: 42%
SK-MEL-28 [5]
  growth, % of control at 10 µM: 72%
K562
  GI50: 3.09 µM
NCI-H522 [6]
  GI50: 9.58 µM
SNB-19 [7]
  growth, % of control at 10 µM: 99%
BT-549
  growth, % of control at 10 µM: 65%
OVCAR-4 [8]
  growth, % of control at 10 µM: 42%
OVCAR-5 [9]
  growth, % of control at 10 µM: 94%
MOLT-4
  GI50: 1.99 µM
SN12C [10]
  growth, % of control at 10 µM: 35%
KM12
  growth, % of control at 10 µM: 31%
HL-60(TB) [11]
  growth, % of control at 10 µM: 23%
OVCAR-8
  GI50: 10.3 µM
T47D [12]
  growth, % of control at 10 µM: 29%
SF-539 [13]
  GI50: 11.5 µM
HCC 2998
  GI50: 8.76 µM
SK-MEL-5
  GI50: 5.7 µM
MCF7 [14]
  growth, % of control at 10 µM: 12%
A498
  GI50: 4.65 µM
T47D [15]
  GI50: 4.95 µM
HCT-15 [16]
  GI50: 11.7 µM
SF-268 [17]
  GI50: 5.06 µM
COLO 205 [18]
  GI50: 7.7 µM
HT-29
  GI50: 3.97 µM
A549 [19]
  growth, % of control at 10 µM: 51%
SK-OV-3
  GI50: 40.4 µM
RXF 393 [20]
  growth, % of control at 10 µM: 35%
SF-539 [21]
  growth, % of control at 10 µM: 33%
IGROV-1
  growth, % of control at 10 µM: 49%
SK-MEL-28 [22]
  GI50: 7.77 µM
HL-60(TB) [23]
  GI50: 0.00139 µM
[24]
  GI50: 3.39 µM
SNB-19 [25]
  GI50: 49.2 µM
HCT-15 [26]
  growth, % of control at 10 µM: 52%
SF-295
  GI50: 2.83 µM
LOX IMVI
  GI50: 7.78 µM
M14
  GI50: 6.37 µM
MDA-MB-435
  GI50: 3.26 µM
A549 [27]
  GI50: 6.93 µM
SN12C [28]
  GI50: 2.17 µM
MCF7 [29]
  GI50: 3.37 µM
COLO 205 [30]
  growth, % of control at 10 µM: 67%
OVCAR-3
  growth, % of control at 10 µM: 51%
OVCAR-4 [31]
  GI50: 10.7 µM
NCI-H522 [32]
  growth, % of control at 10 µM: 45%
SK-MEL-2
  GI50: 13.2 µM
